# The NIST ThermoML archive (doi:10.1021/je060271a)
# Several values for one entry are separate records, joined by “and”; a condition that tells them apart may be missing. Equal values may be shown once. ± gives the expanded uncertainty stated by the source.
# Details: 343.16 K, Liquid, Vibrating tube method
structure (smiles),measurement,setting,value
CCCCCC(=O)OCC(COC(=O)CCCCC)(COC(=O)CCCCC)COC(=O)CCCCC [pentaerythritol tetrahexanoate],mass density,19959 kPa,971.7 ± 1.2 kg/m3
same,mass density,19975 kPa,971.6 ± 1.2 kg/m3
same,mass density,19990 kPa,971.8 ± 1.2 kg/m3
same,mass density,20010 kPa,971.8 ± 1.2 kg/m3
same,mass density,20026 kPa,971.6 ± 1.2 kg/m3
same,mass density,20042 kPa,971.7 ± 1.2 kg/m3
same,mass density,20054 kPa,971.7 ± 1.2 kg/m3
same,mass density,20065 kPa,971.8 ± 1.2 kg/m3
same,mass density,20075 kPa,971.6 ± 1.2 kg/m3
same,mass density,20086 kPa,971.7 ± 1.2 kg/m3
same,mass density,20099 kPa,971.8 ± 1.2 kg/m3
same,mass density,20105 kPa,971.8 ± 1.2 kg/m3
same,mass density,20106 kPa,971.8 ± 1.2 kg/m3
same,mass density,20108 kPa,971.7 ± 1.2 kg/m3
same,mass density,20111 kPa,971.8 ± 1.2 kg/m3
same,mass density,20114 kPa,971.8 ± 1.2 kg/m3
same,mass density,20116 kPa,971.8 ± 1.2 kg/m3
same,mass density,20117 kPa,971.8 ± 1.2 kg/m3
same,mass density,20118 kPa,971.7 ± 1.2 kg/m3
same,mass density,20119 kPa,971.7 ± 1.2 kg/m3
same,mass density,20121 kPa,971.6 ± 1.2 kg/m3
same,mass density,20122 kPa,971.7 ± 1.2 kg/m3
same,mass density,20124 kPa,971.6 ± 1.2 kg/m3 and 971.8 ± 1.2 kg/m3
same,mass density,20140 kPa,971.8 ± 1.2 kg/m3
same,mass density,20174 kPa,971.9 ± 1.2 kg/m3
same,mass density,20204 kPa,971.8 ± 1.2 kg/m3
same,mass density,20239 kPa,971.8 ± 1.2 kg/m3
same,mass density,20269 kPa,971.9 ± 1.2 kg/m3
same,mass density,20298 kPa,971.8 ± 1.2 kg/m3
same,mass density,20328 kPa,971.8 ± 1.2 kg/m3
same,mass density,20365 kPa,971.9 ± 1.2 kg/m3
same,mass density,20395 kPa,971.8 ± 1.2 kg/m3
same,mass density,20426 kPa,972 ± 1.2 kg/m3
same,mass density,20462 kPa,971.8 ± 1.2 kg/m3
same,mass density,20493 kPa,972 ± 1.2 kg/m3
same,mass density,20525 kPa,972 ± 1.2 kg/m3
same,mass density,20558 kPa,971.9 ± 1.2 kg/m3
same,mass density,20589 kPa,972 ± 1.2 kg/m3
same,mass density,20626 kPa,972.1 ± 1.2 kg/m3
same,mass density,20657 kPa,972.3 ± 1.2 kg/m3
same,mass density,20689 kPa,972.1 ± 1.2 kg/m3
same,mass density,20727 kPa,972.1 ± 1.2 kg/m3
same,mass density,20759 kPa,972.2 ± 1.2 kg/m3
same,mass density,20790 kPa,972.2 ± 1.2 kg/m3
same,mass density,20828 kPa,972.3 ± 1.2 kg/m3
same,mass density,20860 kPa,972.2 ± 1.2 kg/m3
same,mass density,20892 kPa,972.2 ± 1.2 kg/m3
same,mass density,20930 kPa,972.4 ± 1.2 kg/m3
same,mass density,20963 kPa,972.3 ± 1.2 kg/m3
same,mass density,20998 kPa,972.3 ± 1.2 kg/m3
same,mass density,21030 kPa,972.4 ± 1.2 kg/m3
same,mass density,21068 kPa,972.5 ± 1.2 kg/m3
same,mass density,21101 kPa,972.4 ± 1.2 kg/m3
same,mass density,21134 kPa,972.4 ± 1.2 kg/m3
same,mass density,21166 kPa,972.5 ± 1.2 kg/m3
same,mass density,21238 kPa,972.5 ± 1.2 kg/m3
same,mass density,21271 kPa,972.5 ± 1.2 kg/m3
same,mass density,21309 kPa,972.6 ± 1.2 kg/m3
same,mass density,21339 kPa,972.6 ± 1.2 kg/m3
same,mass density,21372 kPa,972.6 ± 1.2 kg/m3
same,mass density,21399 kPa,972.7 ± 1.2 kg/m3
same,mass density,21426 kPa,972.6 ± 1.2 kg/m3
same,mass density,21732 kPa,972.7 ± 1.2 kg/m3
same,mass density,21757 kPa,972.8 ± 1.2 kg/m3
same,mass density,21782 kPa,972.8 ± 1.2 kg/m3
same,mass density,21811 kPa,972.9 ± 1.2 kg/m3
same,mass density,22020 kPa,972.9 ± 1.2 kg/m3
same,mass density,22050 kPa,973.1 ± 1.2 kg/m3
same,mass density,22076 kPa,973.1 ± 1.2 kg/m3
same,mass density,22102 kPa,973 ± 1.2 kg/m3
same,mass density,22132 kPa,973.1 ± 1.2 kg/m3
same,mass density,22157 kPa,973 ± 1.2 kg/m3
same,mass density,22183 kPa,973.2 ± 1.2 kg/m3
same,mass density,22214 kPa,973.1 ± 1.2 kg/m3
same,mass density,22240 kPa,973.1 ± 1.2 kg/m3
same,mass density,22266 kPa,973.1 ± 1.2 kg/m3
same,mass density,22296 kPa,973.1 ± 1.2 kg/m3
same,mass density,22322 kPa,973.2 ± 1.2 kg/m3
same,mass density,22348 kPa,973.2 ± 1.2 kg/m3
same,mass density,22379 kPa,973.3 ± 1.2 kg/m3
same,mass density,22405 kPa,973.1 ± 1.2 kg/m3
same,mass density,22432 kPa,973.3 ± 1.2 kg/m3
same,mass density,22458 kPa,973.2 ± 1.2 kg/m3
same,mass density,22489 kPa,973.3 ± 1.2 kg/m3
same,mass density,22515 kPa,973.3 ± 1.2 kg/m3
same,mass density,22547 kPa,973.4 ± 1.2 kg/m3
same,mass density,22573 kPa,973.4 ± 1.2 kg/m3
same,mass density,23002 kPa,973.6 ± 1.2 kg/m3
same,mass density,23035 kPa,973.7 ± 1.2 kg/m3
same,mass density,23063 kPa,973.7 ± 1.2 kg/m3
same,mass density,23092 kPa,973.8 ± 1.2 kg/m3
same,mass density,23125 kPa,973.8 ± 1.2 kg/m3
same,mass density,23154 kPa,973.8 ± 1.2 kg/m3
same,mass density,23183 kPa,973.8 ± 1.2 kg/m3
same,mass density,23212 kPa,973.9 ± 1.2 kg/m3
same,mass density,23246 kPa,973.9 ± 1.2 kg/m3
same,mass density,23274 kPa,973.9 ± 1.2 kg/m3
same,mass density,23301 kPa,974 ± 1.2 kg/m3
same,mass density,23332 kPa,973.8 ± 1.2 kg/m3
same,mass density,23381 kPa,974 ± 1.2 kg/m3
same,mass density,23410 kPa,974 ± 1.2 kg/m3
same,mass density,23435 kPa,974 ± 1.2 kg/m3
same,mass density,23459 kPa,974 ± 1.2 kg/m3
same,mass density,23484 kPa,974.1 ± 1.2 kg/m3
same,mass density,23514 kPa,973.9 ± 1.2 kg/m3
same,mass density,23540 kPa,974.1 ± 1.2 kg/m3
same,mass density,23566 kPa,974 ± 1.2 kg/m3
same,mass density,23591 kPa,974.2 ± 1.2 kg/m3
same,mass density,23616 kPa,974 ± 1.2 kg/m3
same,mass density,23646 kPa,974.1 ± 1.2 kg/m3
same,mass density,23671 kPa,974.1 ± 1.2 kg/m3
same,mass density,23696 kPa,974.1 ± 1.2 kg/m3
same,mass density,23727 kPa,974.1 ± 1.2 kg/m3
same,mass density,23752 kPa,974 ± 1.2 kg/m3
same,mass density,23782 kPa,974.2 ± 1.2 kg/m3
same,mass density,23914 kPa,974.3 ± 1.2 kg/m3
same,mass density,23941 kPa,974.3 ± 1.2 kg/m3
same,mass density,23971 kPa,974.5 ± 1.2 kg/m3
same,mass density,23997 kPa,974.2 ± 1.2 kg/m3
same,mass density,24028 kPa,974.3 ± 1.2 kg/m3
same,mass density,24054 kPa,974.2 ± 1.2 kg/m3
same,mass density,24080 kPa,974.3 ± 1.2 kg/m3
same,mass density,24106 kPa,974.3 ± 1.2 kg/m3
same,mass density,24137 kPa,974.4 ± 1.2 kg/m3
same,mass density,24163 kPa,974.4 ± 1.2 kg/m3
same,mass density,24190 kPa,974.4 ± 1.2 kg/m3
same,mass density,24221 kPa,974.4 ± 1.2 kg/m3
same,mass density,24248 kPa,974.4 ± 1.2 kg/m3
same,mass density,24279 kPa,974.4 ± 1.2 kg/m3
same,mass density,24306 kPa,974.4 ± 1.2 kg/m3
same,mass density,26698 kPa,976.1 ± 1.2 kg/m3
same,mass density,26725 kPa,976 ± 1.2 kg/m3
same,mass density,26758 kPa,976.2 ± 1.2 kg/m3
same,mass density,26785 kPa,976.3 ± 1.2 kg/m3
same,mass density,26812 kPa,976.3 ± 1.2 kg/m3
same,mass density,26845 kPa,976.2 ± 1.2 kg/m3
same,mass density,27601 kPa,976.6 ± 1.2 kg/m3
same,mass density,27630 kPa,976.8 ± 1.2 kg/m3
same,mass density,27660 kPa,976.8 ± 1.2 kg/m3
same,mass density,27697 kPa,976.8 ± 1.2 kg/m3
same,mass density,27728 kPa,976.7 ± 1.2 kg/m3
same,mass density,27758 kPa,976.8 ± 1.2 kg/m3
same,mass density,27787 kPa,976.8 ± 1.2 kg/m3
same,mass density,27824 kPa,976.7 ± 1.2 kg/m3
same,mass density,27854 kPa,976.9 ± 1.2 kg/m3
